Experimental data taken from patent publication US20120178626A1, “SYNERGISTIC HERBICIDAL COMPOSITION CONTAINING PROPYZAMIDE AND BENFLURALIN” (DOW AGROSCIENCES LLC, priority 2011, published 2012).

Experiments:
Assay in all cases: Field trial, percent visual weed control, soil-applied tank mixes
Assay type in all cases: in vivo
Settings in all cases: applied to soil
[1] = tested on: Shepherds purse (Capsella bursa-pastoris, CAPBP)
Method: (§1) These trials were conducted under field conditions in USA. Trial sites were located in California. The trials were conducted using normal small plot research methodology. Trial plots were between 2 to 4.5 meters (m) wide by 5.5 to 10 m long. All treatments were applied using a randomized complete block trial design with 4 replications per treatment. The trial sites had naturally occurring populations of weeds. The weed spectrum included, but was not limited to, redroot pigweed (Amaranthus retroflexus, AMARE), Shepherds purse (Capsella bursa-pastoris, CAPBP) and Venice mallow (Hibiscus trionum, HIBTR). Treatments consisted of tank mixes of the commercial formulations of propyzamide and benfluralin applied in water directly to the soil. The application volumes were between 93.5 to 187 liters per hectare (L/ha). All application were made using precision gas backpack hand sprayers using a 2 or 3 m boom using flat fan (80° or 110°) nozzles to broadcast the treatments on the soil.
(§2) The treated plots and control plots were rated blind at various intervals after application. Ratings were based of Percent (%) Visual weed control, where 0 corresponds to no control and 100 corresponds to complete control.
(§3) Data was collected for all trials and analyzed using various statistical methods.
(§4) Colby's equation was used to determine the herbicidal effects expected from the mixtures (Colby, S. R. Calculation of the synergistic and antagonistic response of herbicide combinations. Weeds 1967 15, 20-22).
(§5) The following equation was used to calculate the expected activity of mixtures containing two active ingredients, A and B:
(§6) A=observed efficacy of active ingredient A at the same concentration as used in the mixture;
(§7) B=observed efficacy of active ingredient B at the same concentration as used in the mixture.

[2] = tested on: Venice mallow (Hibiscus trionum, HIBTR)
Method: as §1, §2, §3, §4, §5, §6, §7

[3] = tested on: redroot pigweed (Amaranthus retroflexus, AMARE)
Method: as §1, §2, §3, §4, §5, §6, §7

[4] = propyzamide 210 g ai/ha, benfluralin 0, 50 Days After Application
[5] = propyzamide 0, benfluralin 340 g ai/ha, 50 Days After Application

| SMILES | % Weed Control CAPBP, Ob (percent control observed) [1, 4] [%] | % Weed Control HIBTR, Ob (percent control observed) [2, 4] [%] | % Weed Control AMARE, Ob (percent control observed) [3, 4] [%] | % Weed Control CAPBP, Ob (percent control observed) ([1]; propyzamide 0, benfluralin 670 g ai/ha, 50 Days After Application) [%] | % Weed Control HIBTR, Ob (percent control observed) [2, 5] [%] | % Weed Control AMARE, Ob (percent control observed) [3, 5] [%] |
| --- | --- | --- | --- | --- | --- | --- |
| C#CC(C)(C)NC(=O)c1cc(Cl)cc(Cl)c1 [Propyzamide, 3,5-dichloro-N-(1,1-dimethyl-2-propynyl)-benzamide] | 20 | 20 | 13 | – | – | – |
| CCCCN(CC)c1c([N+](=O)[O-])cc(C(F)(F)F)cc1[N+](=O)[O-] [Benfluralin, N-butyl-N-ethyl-2,6-dinitro-4-(trifluoromethyl)-benzenamine] | – | – | – | 3 | 0 | 0 |
